Numbered stars: 1 amine (or outer) side, 2 acyl side, 3 side chain; on linkers, the order of the positions; unused ones are H or OH. Bridge positions count the residues as written; N and C are the ends. Square brackets hold non-standard residues; d marks the D form. Peptide text beside a SMILES is read from it. * marks the point of attachment. hPhe(3-Cl-4-CF3) = N[C@@H](CCc1ccc(C(F)(F)F)c(Cl)c1)C(=O)O; NMePhe(3-CN) = CN[C@@H](Cc1cccc(C#N)c1)C(=O)O; NMePhe(4-Me) = CN[C@@H](Cc1ccc(C)cc1)C(=O)O; NMedβ3hAla = C[C@H](CC(=O)[*:2])N(C)[*:1]; X72 = O=C([C@@H]1Cc2ccccc2N1[*:1])[*:2]; Phe(2-Cl) = N[C@@H](Cc1ccccc1Cl)C(=O)O; Phe(3-I) = N[C@@H](Cc1cccc(I)c1)C(=O)O; Phe(4-F) = N[C@@H](Cc1ccc(F)cc1)C(=O)O; NMeAla(cPr) = CN[C@@H](CC1CC1)C(=O)O; NMeCha = CN[C@@H](CC1CCCCC1)C(=O)O; NMeCba = CN[C@@H](CC1CCC1)C(=O)O; NMeChg = CN[C@H](C(=O)O)C1CCCCC1; NMeI = CC[C@H](C)[C@H](NC)C(=O)O; NMeD = CN[C@@H](CC(=O)O)C(=O)O; NMeL = CN[C@@H](CC(C)C)C(=O)O; αMeL = CC(C)C[C@](C)(N)C(=O)O; NMeV = CN[C@H](C(=O)O)C(C)C; d(β3hA) = C[C@@H](N)CC(=O)O; NMeA = CN[C@@H](C)C(=O)O; NMeAib = CNC(C)(C)C(=O)O; Piperidide = C1CCN(*)CC1; Pra = C#CC[C@H](N)C(=O)O; Ac5c = NC1(C(=O)O)CCCC1; Aze = O=C(O)[C@@H]1CCN1; Sar = CNCC(=O)O
tested on: Human pancreatic cancer cell line AsPC-1 (G12D mutation Kras); assay: AsPC-1 cell growth inhibition (AsPC-1 CGI); type: cell-based; conditions: read-out: AsPC-1 cell growth inhibition, 50% growth inhibitory concentration (IC50 value); 96 hours, CellTiter-Glo, values classified in ranges
Experimental: Test compounds were serially dilated with dimethyl sulfoxide, and 200 nL was then dispensed to a U-bottom 96-well plate using Labcyte Echo. […] The cell suspension was dispensed to a. plate containing a test compound at 100 μL per well and incubated at 37° C. in a 5% carbon dioxide gas incubator. 96 hours later, 80 μL of CellTiter-Glo (Promega) was added to each well and fluorescence was measured.

Structure (SMILES)	IC50
CC[C@H](C)[C@@H]1NC(=O)[C@H](CC(C)C)N(C)C(=O)C[C@@H](C)NC(=O)[C@H](C(C)C)N(C)C(=O)[C@](C)(CC(C)C)NC(=O)[C@@H]2CCCN2C(=O)[C@H](CCc2ccc(C(F)(F)F)c(Cl)c2)NC(=O)CN(C)C(=O)[C@H](CC2CCCCC2)N(C)C(=O)CN(C)C(=O)CN(C)C1=O [Compound 705] (cyclo(I[Sar][Sar][NMeCha][Sar][hPhe(3-Cl-4-CF3)]P[αMeL][NMeV][d(β3hA)][NMeL]))	> 500 nM
CC[C@H](C)[C@@H]1NC(=O)[C@H](CC(C)C)N(C)C(=O)C[C@@H](C(=O)N2CCCCC2)N(C)C(=O)[C@H](CC(C)C)NC(=O)C(C)(C)N(C)C(=O)[C@H](Cc2ccccc2Cl)NC(=O)[C@H](Cc2cccc(I)c2)NC(=O)CN(C)C(=O)[C@H](Cc2ccc(C)cc2)N(C)C(=O)CN(C)C(=O)CN(C)C1=O [Compound 706] ([NMeL]I[Sar][Sar][NMePhe(4-Me)][Sar][Phe(3-I)][Phe(2-Cl)][NMeAib]L[NMeD]-Piperidide; lactam N-11)	> 500 nM
CC[C@H](C)[C@@H]1NC(=O)[C@H](CC(C)C)N(C)C(=O)C[C@@H](C)NC(=O)[C@H](CC2CC2)N(C)C(=O)C2(CCCC2)NC(=O)[C@@H]2CCCN2C(=O)[C@H](CCc2ccc(C(F)(F)F)c(Cl)c2)NC(=O)CN(C)C(=O)[C@H](CC2CCCCC2)N(C)C(=O)CN(C)C(=O)CN(C)C1=O [Compound 707] (cyclo([Ac5c][NMeAla(cPr)][d(β3hA)][NMeL]I[Sar][Sar][NMeCha][Sar][hPhe(3-Cl-4-CF3)]P))	> 500 nM
CC[C@H](C)[C@@H]1NC(=O)[C@H](CC(C)C)N(C)C(=O)C[C@@H](C(=O)N2CCCCC2)N(C)C(=O)[C@H](C(C)C)N(C)C(=O)C2(CCCC2)NC(=O)[C@@H]2CCCN2C(=O)[C@H](CCc2ccc(C(F)(F)F)c(Cl)c2)NC(=O)CN(C)C(=O)[C@H](Cc2cccc(C#N)c2)N(C)C(=O)CN(C)C(=O)CN(C)C1=O [Compound 710] ([NMeL]I[Sar][Sar][NMePhe(3-CN)][Sar][hPhe(3-Cl-4-CF3)]P[Ac5c][NMeV][NMeD]-Piperidide; lactam N-11)	> 500 nM
CC[C@H](C)[C@@H]1NC(=O)[C@H](CC(C)C)N(C)C(=O)C[C@@H](C(=O)N2CCCCC2)N(C)C(=O)[C@H](CC(C)C)NC(=O)C(C)(C)N(C)C(=O)[C@H](Cc2ccc(F)cc2)NC(=O)[C@H](Cc2cccc(I)c2)NC(=O)CN(C)C(=O)[C@H](CC2CCCCC2)N(C)C(=O)CN(C)C(=O)CN(C)C1=O [Compound 711] ([NMeL]I[Sar][Sar][NMeCha][Sar][Phe(3-I)][Phe(4-F)][NMeAib]L[NMeD]-Piperidide; lactam N-11)	> 500 nM
CC[C@H](C)[C@@H]1NC(=O)[C@H](CC(C)C)N(C)C(=O)C[C@@H](C(=O)N(C)C)N(C)C(=O)[C@H]([C@@H](C)CC)N(C)C(=O)[C@H](C)NC(=O)[C@H](C)N(C)C(=O)[C@H](CCc2ccc(C(F)(F)F)c(Cl)c2)NC(=O)CN(C)C(=O)[C@H](Cc2ccc(C)cc2)N(C)C(=O)[C@@H]2CCN2C(=O)[C@H](C)N(C)C1=O [Compound 715] ([NMeL]I[NMeA][Aze][NMePhe(4-Me)][Sar][hPhe(3-Cl-4-CF3)][NMeA]A[NMeI][NMeD]-NMe2; lactam N-11)	> 500 nM
C#CC[C@@H]1NC(=O)[C@H](CC(C)C)N(C)C(=O)C[C@@H](C(=O)N2CCCCC2)N(C)C(=O)[C@H](C2CCCCC2)N(C)C(=O)C2(CCCC2)NC(=O)[C@@H]2CCCN2C(=O)[C@H](CCc2ccc(C(F)(F)F)c(Cl)c2)NC(=O)CN(C)C(=O)[C@H](CC2CCCCC2)N(C)C(=O)CN(C)C(=O)CN(C)C1=O [Compound 716] ([NMeL][Pra][Sar][Sar][NMeCha][Sar][hPhe(3-Cl-4-CF3)]P[Ac5c][NMeChg][NMeD]-Piperidide; lactam N-11)	> 500 nM
CC[C@H](C)[C@@H]1NC(=O)[C@H](CC(C)C)N(C)C(=O)C[C@@H](C(=O)N2CCCCC2)N(C)C(=O)[C@H](C2CCCCC2)N(C)C(=O)C2(CCCC2)NC(=O)[C@@H]2CCCN2C(=O)[C@H](CCc2ccc(C(F)(F)F)c(Cl)c2)NC(=O)[C@H](C)N(C)C(=O)[C@H](CC2CCCCC2)N(C)C(=O)CN(C)C(=O)CN(C)C1=O [Compound 722] ([NMeL]I[Sar][Sar][NMeCha][NMeA][hPhe(3-Cl-4-CF3)]P[Ac5c][NMeChg][NMeD]-Piperidide; lactam N-11)	> 500 nM
CC[C@H](C)[C@@H]1NC(=O)[C@H](CC(C)C)N(C)C(=O)C[C@@H](C)N(C)C(=O)[C@H](CC2CCC2)N(C)C(=O)C2(CCCC2)NC(=O)[C@@H]2CCCN2C(=O)[C@H](CCc2ccc(C(F)(F)F)c(Cl)c2)NC(=O)CN(C)C(=O)[C@H](CC2CCCCC2)N(C)C(=O)CN(C)C(=O)CN(C)C1=O [Compound 723] (cyclo([Ac5c][NMeCba][NMedβ3hAla][NMeL]I[Sar][Sar][NMeCha][Sar][hPhe(3-Cl-4-CF3)]P))	> 500 nM
CC[C@H](C)[C@@H]1NC(=O)[C@H](CC(C)C)N(C)C(=O)C[C@@H](C(=O)N2CCCCC2)N(C)C(=O)[C@H](C2CCCCC2)N(C)C(=O)C2(CCCC2)NC(=O)[C@@H]2Cc3ccccc3N2C(=O)[C@H](CCc2ccc(C(F)(F)F)c(Cl)c2)NC(=O)CN(C)C(=O)[C@H](CC2CCCCC2)N(C)C(=O)[C@@H]2CCN2C(=O)CN(C)C1=O [Compound 725] ([NMeL]I[Sar][Aze][NMeCha][Sar][hPhe(3-Cl-4-CF3)][X72][Ac5c][NMeChg][NMeD]-Piperidide; lactam N-11)	> 500 nM

— US20240148821A1, “PHARMACEUTICAL USE OF CYCLIC PEPTIDE COMPOUND” (CHUGAI SEIYAKU KABUSHIKI KAISHA, priority 2021, published 2024)
